# Experiments:
# [1] = system: P. falciparum 3D7 trophozoites; assay: Metabolomic fingerprint profiling LC-MS; format: cell-based, Plasmodium falciparum; design: UDP-D-glucose / ADP-D-glucose: unit not given here
# [2] = system: P. falciparum; assay: EC50 listed in S2 Table Metabolomics (used to set the concentration tested); format: cell-based; conditions: Plasmodium falciparum; EC50 used for Factor_XEC50 in metabolomics; read-out: EC50_nM
# [3] = metabolite level change after treatment
smiles,measurement,setting,value
CC1CCN(Cc2ccc(NC(=O)c3cc4ccc5cccnc5c4[nH]3)cc2)CC1 [MMV020549],Acetyllysine,"[1]; S2 Table Metabolomics, metabolite Acetyllysine",-2.641
same,N-acetyl-L-ornithine,"[1]; S2 Table Metabolomics, metabolite N-acetyl-L-ornithine",-2.126
same,N-carbamoyl-L-aspartate,"[1]; S2 Table Metabolomics, metabolite N-carbamoyl-L-aspartate",2.423
same,NADPH,"[1]; S2 Table Metabolomics, metabolite NADPH",1.7547
same,dAMP,"[1]; S2 Table Metabolomics, metabolite dAMP",0.4295
same,dCMP,"[1]; S2 Table Metabolomics, metabolite dCMP",0.8562
same,dTDP,"[1]; S2 Table Metabolomics, metabolite dTDP",0.3381
same,dTMP,"[1]; S2 Table Metabolomics, metabolite dTMP",0.4292
same,dTTP,"[1]; S2 Table Metabolomics, metabolite dTTP",0.08993
same,dihydroorotate,"[1]; S2 Table Metabolomics, metabolite dihydroorotate",2.255
same,orotate,"[1]; S2 Table Metabolomics, metabolite orotate",1.187
same,DLH,"[1]; S2 Table Metabolomics, peptide DLH",-1.428
same,DLS/SDL/SID,"[1]; S2 Table Metabolomics, peptide DLS/SDL/SID",-2.953
same,PD,"[1]; S2 Table Metabolomics, peptide PD",-0.7061
same,PEE,"[1]; S2 Table Metabolomics, peptide PEE",-0.9939
same,PVNF,"[1]; S2 Table Metabolomics, peptide PVNF",-1.512
same,3-phosphoglycerate,"[1]; metabolite 3-phosphoglycerate, S2 Table Metabolomics",-0.1099
same,ADP-D-glucose,"[1]; metabolite ADP-D-glucose, S2 Table Metabolomics",0.08948
same,ATP,"[1]; metabolite ATP, S2 Table Metabolomics",-0.07943
same,CDP,"[1]; metabolite CDP, S2 Table Metabolomics, change in metabolite level after compound treatment",0.4826
same,D-sedoheptulose-1/7-phosphate,"[1]; metabolite D-sedoheptulose-1/7-phosphate, S2 Table Metabolomics, change in metabolite level after compound treatment",0.04396
same,FAD,"[1]; metabolite FAD, S2 Table Metabolomics",-0.01225
same,GMP,"[1]; metabolite GMP, S2 Table Metabolomics, change in metabolite level after compound treatment",-0.01756
same,NAD+,"[1]; metabolite NAD+, S2 Table Metabolomics",-0.1491
same,NADP+,"[1]; metabolite NADP+, S2 Table Metabolomics",0.1203
same,Octoluse Bisphosphate,"[1]; metabolite Octoluse Bisphosphate, S2 Table Metabolomics, change in metabolite level after compound treatment",-0.3788
same,Pyroglutamic acid,"[1]; metabolite Pyroglutamic acid, S2 Table Metabolomics",-0.1503
same,UDP-D-glucose,"[1]; metabolite UDP-D-glucose, S2 Table Metabolomics",-0.0815
same,UDP-D-glucuronate,"[1]; metabolite UDP-D-glucuronate, S2 Table Metabolomics",-0.1055
same,UDP-N-acetyl-glucosamine,"[1]; metabolite UDP-N-acetyl-glucosamine, S2 Table Metabolomics",-0.09535
same,UDP,"[1]; metabolite UDP, S2 Table Metabolomics, change in metabolite level after compound treatment",0.6579
same,UMP,"[1]; metabolite UMP, S2 Table Metabolomics, change in metabolite level after compound treatment",0.21
same,UTP,"[1]; metabolite UTP, S2 Table Metabolomics, change in metabolite level after compound treatment",0.1832
same,a-ketoglutarate,"[1]; metabolite a-ketoglutarate, S2 Table Metabolomics",-0.128
same,citrate/isocitrate,"[1]; metabolite citrate/isocitrate, S2 Table Metabolomics, change in metabolite level after compound treatment",-0.1069
same,cytidine,"[1]; metabolite cytidine, S2 Table Metabolomics",-0.1996
same,dATP,"[1]; metabolite dATP, S2 Table Metabolomics",0.1916
same,dGMP/AMP,"[1]; metabolite dGMP/AMP, S2 Table Metabolomics, change in metabolite level after compound treatment",0.3048
same,fumarate,"[1]; metabolite fumarate, S2 Table Metabolomics, change in metabolite level after compound treatment",0.06488
same,glucose-1/6-phosphate,"[1]; metabolite glucose-1/6-phosphate, S2 Table Metabolomics, change in metabolite level after compound treatment",-0.4724
same,glycerate,"[1]; metabolite glycerate, S2 Table Metabolomics, change in metabolite level after compound treatment",-0.06488
same,guanine,"[1]; metabolite guanine, S2 Table Metabolomics, change in metabolite level after compound treatment",0.773
same,guanosine,"[1]; metabolite guanosine, S2 Table Metabolomics, change in metabolite level after compound treatment",1.397
same,hypoxanthine,"[1]; metabolite hypoxanthine, S2 Table Metabolomics",-0.1958
same,indole,"[1]; metabolite indole, S2 Table Metabolomics",-0.3017
same,inosine,"[1]; metabolite inosine, S2 Table Metabolomics, change in metabolite level after compound treatment",-0.6136
same,2_3-Diphosphoglyceric acid,[1]; [3],-0.02531
same,4-phosphopantothenate,[1]; [3],0.1058
same,6-phospho-D-gluconate,[1]; [3],-0.03173
same,FMN,[1]; [3],0.1472
same,IMP,[1]; [3],0.1864
same,Pyrophosphate,[1]; [3],0.03595
same,Sedoheptoluse bisphosphate,[1]; [3],0.04232
same,cyclic-AMP,[1]; [3],-0.09542
same,glutathione disulfide,[1]; [3],-0.2786
same,lactate,[1]; [3],-0.1188
same,myo-inositol,[1]; [3],-0.1919
same,nicotinate,"[1]; metabolite nicotinate, S2 Table Metabolomics",0.02078
same,ornithine,"[1]; metabolite ornithine, S2 Table Metabolomics",0.04846
same,phosphoenolpyruvate,"[1]; metabolite phosphoenolpyruvate, S2 Table Metabolomics",-0.09349
same,pyruvate,"[1]; metabolite pyruvate, S2 Table Metabolomics, change in metabolite level after compound treatment",-0.1796
same,ribose-phosphate,"[1]; metabolite ribose-phosphate, S2 Table Metabolomics",-0.1444
same,sarcosine/alanine,"[1]; metabolite sarcosine/alanine, S2 Table Metabolomics, change in metabolite level after compound treatment",-0.25
same,sn-glycerol-3-phosphate,"[1]; metabolite sn-glycerol-3-phosphate, S2 Table Metabolomics",-0.2777
same,succinate/methylmalonic acid,"[1]; metabolite succinate/methylmalonic acid, S2 Table Metabolomics, change in metabolite level after compound treatment",-0.1252
same,uridine,"[1]; metabolite uridine, S2 Table Metabolomics, change in metabolite level after compound treatment",0.147
same,xanthosine,"[1]; metabolite xanthosine, S2 Table Metabolomics, change in metabolite level after compound treatment",-0.8804
same,EC50,[2],274 nM

# Reference: paper PMC4965013, “Open Source Drug Discovery with the Malaria Box Compound Collection for Neglected Diseases and Beyond” (PLoS Pathogens, 2016)
